Test system: Caco-2 cells
Assay: In situ global proteomics profiling of Caco-2 cells (LC-MS/MS, LFQ)
Type: cell-based, human
Conditions: for Log2 20 µM DEP/DMSO: LFQ
Description: Figure 7 Identification of PPARγ as target of deoxyelephantopin and screening of DEP derivatives as PPARγ antagonists. (a) Quantification of endogenous PPARγ enriched from Caco-2 cells using 10 μM 24c following in situ treatment with DEP (20 μM) or DMSO (normalized LFQ values±s.d. are shown; n=6). (b) Changes in expression levels of five PPARγ-dependent proteins following 24 h treatment of Caco-2 cells with DMSO, rosiglitazone (10 μM), T0070907 (50 μM) or DEP (20 μM; LFQ ratios±s.d. are shown; n=3). **P<0.005 and ***P<0.0005 by two-sided Student's t-test. (c) Gel-based competitive screening of DEP and analogues as PPARγ antagonists against recombinant human enzyme (top). hPPARγ was treated with each compound (20 μM) for 1 h followed by treatment with 24c-Cy3 (10 μM) as probe. Quantification of fluorescence intensity in the competitive screening for PPARγ antagonists (bottom; values±s.d. are shown; n=3).
Caco-2 cells were treated with DMSO, PPARγ agonist rosiglitazone, antagonist T0070907 or DEP for 24 h, the cells were collected and the proteomes were comparatively analysed by LC–MS/MS. […] Furthermore, the list of 43 dysregulated proteins was analysed and classified using the GOrilla pathway analysis tool (Supplementary Fig. 15). […]
In situ global proteomics profiling using LC-MS/MS. Caco- ’ cells/mL) in a 6-well plate, allowed to grow to confluence and to differentiate for 28 days. The wells were washed one time with PBS and treated with either DMSO, 10 µM rosiglitazone, 50 µM T0070907 or 20 µM DEP for 24 hours. Cells were washed two times with PBS and lysates were prepared. Samples (30 µg) were denatured with 6 M urea in 50 mM NH4HCO3, reduced […]
dark. Samples were diluted to 2 M urea with 50 mM NH4HCO3, and digested with trypsin ([…] for 12 hours at 37 °C. Samples were acidified to a final concentration of 5% acetic acid, desalted over a self-packed C18 spin column and […]
dried. […]
LC-MS/MS analysis. Peptides were resuspended in water with 0.1% formic acid (FA) and analyzed using Proxeon EASY-nLC 1000 nano-UHPLC coupled to QExactive Plus Quadrupole-Orbitrap mass spectrometer (Thermo Scientific). The chromatography column […]
H2O (Buffer A) and 0.1% FA in MeCN (Buffer B). Peptides were eluted into the mass spectrometer at a flow rate of 300 nL/min. over a 240 min. linear gradient (3-35% Buffer B) at 50 °C. Data was acquired in data-dependent mode (top- N = ’ […]
and isotope exclusion was enabled.
MaxQuant analysis. The MS data was analyzed with MaxQuant (V1.5.2.8) and searched against the human proteome (Uniprot, 89,649 entries) and a common list of contaminants (included in MaxQuant). The first peptide search tolerance was set to 20 ppm, 10 ppm was used for the main peptide search and fragment mass tolerance was set to 0.02 Da. The false discovery rate for peptides, proteins and sites identification was set to 1%. The minimum peptide length was set to 6 amino acids and peptide re-quantification, label-free quantification (MaxLFQ) and “ ” were enabled. The minimal number of peptides per protein was set to two. Oxidized methionines and N-terminal acetylation were searched as variable modifications and carbamidomethylation of cysteines was searched as a fixed modification. For SILAC experiments 13C6 L-lysine and 13C6 15N4 L-arginine were set as heavy isotope labels and 12C6 L-lysine and 12C6 14N4 L-arginine as light isotope labels.
19 d k g h ARγ. 19a was covalently docked to the crystal structure of human γ ZU 190 using the GOLD suite (V5.3, CCDC). The default GOLD fitness function was used to determine the best binding configuration. The distance for hydrogen bonding was set to 3 Å.
IAA competition of 23c, 24c and DEP h ARγ. γ
(500 ng in 9 µL PBS) was treated with either 100 µM DEP, 23c, 24c or DMSO (1 µL of 10x stock in DMSO) for one hour. Samples were denatured with 6 M urea in 50 mM NH4HCO3, […]
in the dark. Samples were diluted to 2 M urea with 50 mM NH4HCO3, and digested with trypsin […]

Compound: C=C(C)C(=O)O[C@H]1CC2=C[C@@H](C/C(C)=C/[C@H]3OC(=O)C(=C)[C@H]13)OC2=O [deoxyelephantopin]
- mode of action on PPARγ in cells (20 µM, 24 h, compared with rosiglitazone and T0070907): antagonist of PPARγ
- Log2 20 µM DEP/DMSO (protein ALDH3B1, 24 h): -0.67
- Log2 20 µM DEP/DMSO (protein ARHGAP17, 24 h): -0.97
- Log2 20 µM DEP/DMSO (protein ARMCX3, 24 h): -0.92
- Log2 20 µM DEP/DMSO (protein COL4A3BP, 24 h): -0.76
- Log2 20 µM DEP/DMSO (protein CROT, 24 h): -0.68
- Log2 20 µM DEP/DMSO (protein CTBP2, 24 h): 0.72
- Log2 20 µM DEP/DMSO (protein DDX21, 24 h): 0.82
- Log2 20 µM DEP/DMSO (protein FNTA, 24 h): -0.62
- Log2 20 µM DEP/DMSO (protein GID8, 24 h): 0.68
- Log2 20 µM DEP/DMSO (protein GIPC2, 24 h): -0.69
- Log2 20 µM DEP/DMSO (protein GIT2, 24 h): -0.92
- Log2 20 µM DEP/DMSO (protein GSTA1, 24 h): -0.81
- Log2 20 µM DEP/DMSO (protein GSTA2, 24 h): -0.87
- Log2 20 µM DEP/DMSO (protein GSTM3, 24 h): -0.84
- Log2 20 µM DEP/DMSO (protein HIGD1A, 24 h): 0.69
- Log2 20 µM DEP/DMSO (protein IREB2, 24 h): 0.65
- Log2 20 µM DEP/DMSO (protein ITGB4, 24 h): 0.92
- Log2 20 µM DEP/DMSO (protein LDHD, 24 h): -0.60
- Log2 20 µM DEP/DMSO (protein LDLR, 24 h): 1.72
- Log2 20 µM DEP/DMSO (protein LIPA, 24 h): -0.68
- Log2 20 µM DEP/DMSO (protein MARCH5, 24 h): 1.85
- Log2 20 µM DEP/DMSO (protein MGMT, 24 h): -0.81
- Log2 20 µM DEP/DMSO (protein MYO15B, 24 h): -1.00
- Log2 20 µM DEP/DMSO (protein NOP9, 24 h): 1.57
- Log2 20 µM DEP/DMSO (protein OAS1, 24 h): 1.10
- Log2 20 µM DEP/DMSO (protein OGDHL, 24 h): -0.98
- Log2 20 µM DEP/DMSO (protein PANK4, 24 h): -0.81
- Log2 20 µM DEP/DMSO (protein PHPT1, 24 h): -0.79
- Log2 20 µM DEP/DMSO (protein PSIP1, 24 h): 0.76
- Log2 20 µM DEP/DMSO (protein RAB5B, 24 h): 0.79
- Log2 20 µM DEP/DMSO (protein RBP4, 24 h): -1.03
- Log2 20 µM DEP/DMSO (protein RRS1, 24 h): 0.65
- Log2 20 µM DEP/DMSO (protein SAMHD1, 24 h): -0.97
- Log2 20 µM DEP/DMSO (protein SCAMP3, 24 h): 0.63
- Log2 20 µM DEP/DMSO (protein SETDB1, 24 h): 0.81
- Log2 20 µM DEP/DMSO (protein SLC26A3, 24 h): -0.98
- Log2 20 µM DEP/DMSO (protein SLC39A14, 24 h): -0.74
- Log2 20 µM DEP/DMSO (protein STK4, 24 h): -0.74
- Log2 20 µM DEP/DMSO (protein SURF6, 24 h): 1.30
- Log2 20 µM DEP/DMSO (protein TGOLN2, 24 h): 1.03
- Log2 20 µM DEP/DMSO (protein TPD52L1, 24 h): -0.71
- Log2 20 µM DEP/DMSO (protein TTR, 24 h): -0.97
- Log2 20 µM DEP/DMSO (protein VPS52, 24 h): 0.63
